Experimental data reported in patent EP3655424B1, “PEPTIDES MODULATING SPERM MOTILITY BY MODULATING THE PHOSPHOPROTEIN PHOSPHATASE 1 COMPLEX” (University of Wolverhampton, priority 2017, dated 2021).
Where two headings read alike, the source gives them in different places.

Assays:
bovine spermatozoa [1] = experiment: Intracellular accumulation / quantitative translocation of TAMRA-labelled peptides, bovine sperm; type: cell-based
Protocol: (§1) Isolated bovine and human spermatozoa (4 x10^7 cells) were suspended and incubated with 10 µM TAMRA-labeled peptides for 1 h at 37 °C in a humidified atmosphere of 95% air/5 % CO2. Cells were then washed three times (800 g for 5 min) in ALLGrade Wash medium (LigeGlobal, Brussels, Belgium). To confirm if the fluorescently labeled peptides were not merely surface associated, the sperm cell population was divided in two and a trypsin incubation was used to remove any surface associated peptides. In summary, half of the cells were set aside (2 x10^7 cells) and fixed in 4 % paraformaldehyde (PFA) for 20 min. The other half was incubated with 1 % (wt/vol) trypsin at 37 °C, collected by centrifugation at 3000 g, washed in ALLGrade Wash medium (LigeGlobal, Brussels, Belgium) and resuspended in 4 % PFA 20 min. Fixed cells from each preparation were spread into coverslips and allowed to air dry. After mounting, slides were assessed by fluorescence microscopy (Imager.Z1, Axio-Cam HRm camera and AxioVision software, Zeiss, Jena, Germany). Translocation efficacies of CPP-mediated intracellular delivery of the peptides sequences were determined by the quantitative uptake analysis of fluorescently labeled moieties^[3]. Isolated bovine and human spermatozoa were incubated with 10 µM TAMRA-labeled peptides for 1 h at 37 °C in a humidified atmosphere of 5 % CO2. Cells were then washed four times with PBS, detached with 1 % (w/v) trypsin at 37 °C, collected by centrifugation at 3000 g and lysed in 300 µl 0.1 M NaOH for 2 h on ice. 250 µl of each sample cell lysate were transferred to a black 96-well plate, and analyzed using an Infinite® 200 PRO (Tecan, Switzerland) (λAbs 544 nm/λEm 590 nm).

bovine spermatozoa [2] = experiment: Motility assay (Sperm Class Analyzer CASA System), bovine sperm; type: cell-based; details: for concentration-dependent effect on motility parameters: 10 µM versus 20 µM
Protocol: (§2) This study was approved by the Ethics and Internal Review Board of the Hospital Infante D. Pedro E.P.E. (Aveiro, Portugal) and was conducted in accordance with the ethical standards of the Helsinki Declaration. Human semen samples were obtained from a randomized group of donors, by masturbation to a sterile container. All donors signed informed consent allowing the samples to be used for scientific purposes. Basic semen analysis was performed according to World Health Organization (WHO) guidelines. Fresh semen from Holstein Frisian bulls was obtained from LusoGenes, LDA (Aveiro, Portugal). Semen was collected by artificial vagina and assessed by a certified veterinarian. Human and bovine spermatozoa were isolated and washed from seminal plasma by centrifugation (800 g for 5 min, 3 times) using ALLGrade Wash medium (LifeGlobal, Brussels, Belgium). Spermatozoa pellets were resuspended in medium to a final concentration of 20x10^6 cells/0.5 mL and incubated at 37°C with 5 % CO2 until the appropriated treatments were added.
(§3) Peptides (PPP1CC2-CT, TAMRA-PPP1CC2-CT, AKAP4 and AKAP4 M) were added to bovine and human sperm samples in total volume of 500 µl containing approximately 2 x10^7 sperm cells per well. Control samples included sperm cells in medium alone. The influence of bioportides on sperm motility parameters was assessed using the Sperm Class Analyzer CASA System (Microptic S L, Barcelona, Spain) with SCA® v5.4 software. Samples and controls (2 µl) were loaded into individual chambers of Leja Standrat Count 8 chamber slide 20 µm depth (Leja Products B. V., The Netherlands) which were pre-heated at 37 °C. This temperature was maintained while at least 1000 sperm cells/per measurement were evaluated. Each peptide was tested on samples from 3 individual donors and all the conditions were performed in triplicate.
(§4) Bovine and human spermatozoa were exposed to different extracellular peptide concentrations (10 and 20 µM) and motility parameters were assessed at 1 and 2 h. For reference, negative controls were performed in the absence of peptides.

human spermatozoa [3] = experiment: Motility assay (Sperm Class Analyzer CASA System), human sperm; type: cell-based; details: for motility parameters / immotile spermatozoa increased (printed: mean decrease) / mean decrease in fast progressive motility / mean decrease in non-progressive motility / mean decrease in slow progressive motility: human spermatozoa; for immotile spermatozoa increased (printed: mean decrease) / mean decrease in fast progressive motility / mean decrease in non-progressive motility / mean decrease in slow progressive motility: 20 µM
Protocol: as §2, §3, §4

human spermatozoa [4] = experiment: Intracellular accumulation / quantitative translocation of TAMRA-labelled peptides, human sperm; type: cell-based
Protocol: as §1, with “Isolated bovine and human spermatozoa (4 x10^7 cells) were suspended and incubated with 10 µM TAMRA-labeled peptides for 1 h at 37 °C in a humidified atmosphere of 95% air/5 % CO2.” left out, “Isolated bovine and human spermatozoa were incubated with 10 µM TAMRA-labeled peptides for 1 h at 37 °C in a humidified atmosphere of 5 % CO2.” left out

bovine spermatozoa [5] = type: cell-based
Protocol: Bovine spermatozoa viability was evaluated using the trypan blue viability test according to manufacturer's guidelines. Human spermatozoa viability was measured using the CellTiter 96® AQueous Non-Radioactive Cell Proliferation Assay (Promega, Madison, USA) according to manufacturer's guidelines.

PPP1CC2-AKAP4 complex = experiment: Disruption of PPP1CC2-AKAP4 complex purified from human sperm (Figure 6B); type: binding; details: co-incubation, AKAP4-BM at 10 µM
Protocol: To establish that the detected fluorescence was not attributed to surface-associated peptide, isolated sperm cells were incubated for 1h with 10µM TAMRA-labelled peptide and subsequently treated with 1% (w/v) trypsin to remove any peptide bound to the surface of spermatozoa. Negative controls without the TAMRA-labelled peptides were performed and presented no reactivity. Images are representative from three independent experiments. Lower panel (right): Quantitative analyses of peptide translocation into bovine and human spermatozoa. Bovine and human spermatozoa were incubated with TAMRA-labelled bioportides (10µM) for 1 h at 37°C. Data are expressed as fluorescence (minus negative control). Three independent experiments were performed in quadruplicate. […] Graph bars represent the mean values of three independent experiments performed in triplicate. Error bars 95% CI. […] Graph bars represent the mean values of three independent experiments performed in triplicate. Error bars 95% CI. […] Images are representative from 3 independent experiments. […] A PPP1CC2-AKAP4 complex was purified from human sperm (Lane 1, left). […] 12, a PPP1 inhibitor, was used as a positive control and, as expected, also decreases the interaction (lane 4). […]

[6] = 10 µM, 1h, compared with negative control
[7] = 10 µM, 2h, compared with AKAP4-BM M
[8] = 10 µM, 2h, compared with negative control
[9] = 20 µM, 1h, compared with AKAP4-BM M
[10] = 20 µM, 1h, compared with negative control
[11] = 20 µM, 2h, compared with AKAP4-BM M
[12] = 20 µM, 2h, compared with negative control
[13] = 1h, compared with negative control
[14] = 2h, compared with negative control

Substance: AKAP4-BM M: mutated homologue (GQQDQDRAAAAAVDVSTLNV) of AKAP4-BM coupled to the Penetratin CPP, used as a control [reference compound]
- internalization (microscopic analyses) (bovine spermatozoa [1]; bovine spermatozoa, 10 µM TAMRA-labelled peptide, 1 h, 37 °C, trypsin treated): internalized less efficiently
- motility parameters (bovine spermatozoa [2]; compared with negative control, two exceptions: fast progressive motility at 1h with 20 µM, immotile spermatozoa with 10 µM at 1h): did not lead to significant differences
- motility parameters (human spermatozoa [3]; compared with negative control, one exception: fast progressive motility at 2h with 20 µM): did not lead to significant differences
- intracellular accumulation of red fluorescent (TAMRA) analogues (human spermatozoa [4]; human spermatozoa, 5 µM, Figure 6A): accumulate within normal healthy human spermatozoa
- internalization (microscopic analyses) (human spermatozoa [4]; human spermatozoa, 10 µM TAMRA-labelled peptide, 1 h, 37 °C, trypsin treated): internalized less efficiently

Substance: GQQDQDRKVICFVDVSTLNVRQIKIWFQNRRMKWKK [AKAP4-BM]
- internalization (microscopic analyses) (bovine spermatozoa [1]): internalized very efficiently
- concentration-dependent effect on motility parameters (bovine spermatozoa [2]): concentration-dependent effect
- mean decrease in fast progressive motility (bovine spermatozoa [2]; 10 µM, 1h, compared with AKAP4-BM M): 41.9 ± 20.0%
- mean decrease in fast progressive motility (bovine spermatozoa [2]; [6]): 49.8 ± 22.5%
- mean decrease in fast progressive motility (bovine spermatozoa [2]; [7]): 43.9 ± 15.3%
- mean decrease in slow progressive motility (bovine spermatozoa [2]; [7]): 21.6 ± 64.4%
- mean decrease in fast progressive motility (bovine spermatozoa [2]; [8]): 50.5 ± 9.7%
- mean decrease in slow progressive motility (bovine spermatozoa [2]; [8]): 42.4 ± 20.4%
- mean decrease in fast progressive motility (bovine spermatozoa [2]; [9]): 95.0 ± 6.5%
- mean decrease in non-progressive motility (bovine spermatozoa [2]; [9]): 63.1 ± 8.3%
- immotile spermatozoa, mean increase (bovine spermatozoa [2]; [10]): 91.8 ± 25.4%
- mean decrease in non-progressive motility (bovine spermatozoa [2]; [10]): 50.0 ± 10.9%
- mean decrease in slow progressive motility (bovine spermatozoa [2]; [10]): 95.3 ± 4.8%
- mean decrease in fast progressive motility (bovine spermatozoa [2]; [11]): 98,4 ± 2,6%
- mean decrease in non-progressive motility (bovine spermatozoa [2]; [11]): 63.0 ± 7.5%
- mean decrease in slow progressive motility (bovine spermatozoa [2]; [11]): 94.1 ± 4.9%
- immotile spermatozoa, mean increase (bovine spermatozoa [2]; [12]): 183.7 ± 88.4%
- mean decrease in fast progressive motility (bovine spermatozoa [2]; [12]): 98.6 ± 2.9%
- mean decrease in slow progressive motility (bovine spermatozoa [2]; [12]): 94.2 ± 4.8%
- progressive motility (human spermatozoa [3]; human sperm, Figure 6C left panel): statistically significant decrease in progressive motility
- percentage of immotile spermatozoa (human spermatozoa [3]; human sperm, Figure 6C middle panel): corresponding increase in the percentage of immotile spermatozoa
- immotile spermatozoa increased (printed: mean decrease) (human spermatozoa [3]; 1h, compared with AKAP4-BM M): 47.3 ± 19.2%
- mean decrease in fast progressive motility (human spermatozoa [3]; 1h, compared with AKAP4-BM M): 87.0 ± 4.3%
- mean decrease in non-progressive motility (human spermatozoa [3]; 1h, compared with AKAP4-BM M): 43.4 ± 24.8%
- mean decrease in slow progressive motility (human spermatozoa [3]; 1h, compared with AKAP4-BM M): 85.1 ± 5.2%
- immotile spermatozoa increased (printed: mean decrease) (human spermatozoa [3]; [13]): 63.0 ± 27.8%
- mean decrease in fast progressive motility (human spermatozoa [3]; [13]): 49.8 ± 22.5%
- mean decrease in non-progressive motility (human spermatozoa [3]; [13]): 31.0 ± 26.9%
- mean decrease in slow progressive motility (human spermatozoa [3]; [13]): 87,6 ± 5,2%
- immotile spermatozoa increased (printed: mean decrease) (human spermatozoa [3]; 2h, compared with AKAP4-BM M): 41.9 ± 14.7%
- mean decrease in fast progressive motility (human spermatozoa [3]; 2h, compared with AKAP4-BM M): 82.7 ± 20.7%
- mean decrease in non-progressive motility (human spermatozoa [3]; 2h, compared with AKAP4-BM M): 50.6 ± 21.0%
- mean decrease in slow progressive motility (human spermatozoa [3]; 2h, compared with AKAP4-BM M): 82.3 ± 11.5%
- immotile spermatozoa increased (printed: mean decrease) (human spermatozoa [3]; [14]): 74.5 ± 28.3%
- mean decrease in fast progressive motility (human spermatozoa [3]; [14]): 50.5 ± 9.7%
- mean decrease in non-progressive motility (human spermatozoa [3]; [14]): 58.6 ± 16.1%
- mean decrease in slow progressive motility (human spermatozoa [3]; [14]): 85,7 ± 8,7%
- internalization (microscopic analyses) (human spermatozoa [4]): internalized very efficiently
- percentage of viable spermatozoa (bovine spermatozoa [5]): slight decrease
- interaction between PPP1CC2 and AKAP4 (PPP1CC2-AKAP4 complex): disrupts the PPP1CC2-AKAP4 complex

Substance: RQIKIWFQNRRMKWKKKPNATRPVTPPRVASGLNPSIQKASNYRNNTVLY (H-RQIKIWFQNRRMKWKKKPNATRPVTPPRVASGLNPSIQKASNYRNNTVLY-NH2) [PPP1CC2-CT]
- internalization (microscopic analyses) (bovine spermatozoa [1]): internalized very efficiently
- concentration-dependent effect on motility parameters (bovine spermatozoa [2]): no concentration-dependent effect
- immotile spermatozoa, mean increase (bovine spermatozoa [2]; [6]): 72.5 ± 33.6%
- mean decrease in fast progressive motility (bovine spermatozoa [2]; [6]): 55.9 ± 19.4%
- mean decrease in slow progressive motility (bovine spermatozoa [2]; [6]): 49.9 ± 41%
- immotile spermatozoa, mean increase (bovine spermatozoa [2]; [8]): 128.3 ± 85.3%
- mean decrease in fast progressive motility (bovine spermatozoa [2]; [8]): 53.9 ± 19.9%
- mean decrease in slow progressive motility (bovine spermatozoa [2]; [8]): 17.4 ± 57%
- immotile spermatozoa, mean increase (bovine spermatozoa [2]; [10]): 86.2 ± 72.3%
- mean decrease in fast progressive motility (bovine spermatozoa [2]; [10]): 64.2 ± 8.3%
- mean decrease in slow progressive motility (bovine spermatozoa [2]; [10]): 31.4 ± 35%
- mean decrease in fast progressive motility (bovine spermatozoa [2]; [12]): 44.6 ± 9.7%
- non-progressive motility (bovine spermatozoa [2]; 10 and 20 µM, 1 and 2 h, Figure 3): No significant alterations
- motility parameters (human spermatozoa [3]; 10 µM): did not induce any significant alterations
- mean decrease in fast progressive motility (human spermatozoa [3]; [14]): 34.5 ± 12.3%
- internalization (microscopic analyses) (human spermatozoa [4]): internalized very efficiently
